Laboratory results taken from patent US20250295656A1, “COMBINATION OF LURBINECTEDIN AND IMMUNE CHECKPOINT INHIBITORS” (priority 2020, published 2025).

Tested on: MPA/DMBA-induced tumours
Assay: MPA/DMBA-induced breast cancer model
Type: in vivo, C57BL/6 mice
Details: palpable MPA/DMBA-induced tumours; systemic injection
Experimental: Medroxyprogesterone acetate (MPA) pellets (50 mg, 90-day release) were implanted subcutaneously into the interscapular area of immunocompetent C57BL/6 mice. Then the animals received 1 mg dimethylbenzantracene (DMBA) administered by oral gavage 6× during 7 weeks. When spontaneous tumours became palpable mice were randomly assigned to receive 0.14 mg/Kg lurbinectedin (Lurbi) alone or in combination with double immune checkpoint blockade with monoclonal antibodies targeting CTLA-4 and PD-1 at day 6, 9 and 12 post treatment (a). The tumour area and overall survival were measured regularly until ethical endpoints were reached (b,c,d). Data were analyzed with TumGrowth (https://github.com/kroemerlab). […]
Six- to eight-week-old female wild-type C57BL/6 and nu/nu mice were obtained from Envigo France (Huntingdon, UK) and were kept in the animal facility at the Gustave Roussy Campus Cancer in a specific pathogen-free and temperature-controlled environment with 12 h day, 12 h night cycles and received food and water ad libitum. […] When tumours became palpable, 0.18 mg/Kg lurbinectedin was injected sequentially once a week intravenously into the tail vein and animal well-being and tumour growth were monitored. […] Animals were monitored and tumour growth documented regularly until end-points were reached. […]

Compound: COc1ccc2[nH]c3c(c2c1)CCN[C@]31CS[C@@H]2c3c(OC(C)=O)c(C)c4c(c3[C@H](COC1=O)N1[C@@H]2[C@H]2c3c(cc(C)c(OC)c3O)C[C@@H]([C@@H]1O)N2C)OCO4 [lurbinectedin]
- overall survival: increased
- tumour growth: significantly reduced
